From patent US20210047324A1 (Aptinyx Inc., priority 2018, published 2021)

Columns and labels:
NMDAR2B = molecular target: T1, NMDAR2B (Homo sapiens, UniProt Q13224); experiment: NMDAR agonist assay, [3H]MK-801 binding, NMDAR2B expressing HEK cell membranes; type: biochemical; conditions: 50 μM glutamate
T1 construct: expressed in transfected cells; host or cells: HEK cells (membrane extract)
How it was run: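 Membranes from HEK cells (300 μg protein) preincubated 15 min with 50 μM glutamate plus compound (1×10^−15–1×10^−7 M) or 1 mM glycine, then with 0.3 μCi [3H]MK-801 for 15 min at 25° C. (nonequilibrium); filter-bound DPM, baseline-subtracted, expressed as % of 1 mM glycine; EC50 and % maximum from three-parameter fit.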

NMDAR2C = molecular target: T2, NMDAR2C (Homo sapiens, UniProt Q14957); experiment: NMDAR agonist assay, [3H]MK-801 binding, NMDAR2C expressing HEK cell membranes; type: biochemical; conditions: 50 μM glutamate; relative to 1 mM glycine
T2 construct: expressed in transfected cells; host or cells: HEK cells (membrane extract)
T2 sequence (Q14957 20-1233, species assumed, other chains not shown): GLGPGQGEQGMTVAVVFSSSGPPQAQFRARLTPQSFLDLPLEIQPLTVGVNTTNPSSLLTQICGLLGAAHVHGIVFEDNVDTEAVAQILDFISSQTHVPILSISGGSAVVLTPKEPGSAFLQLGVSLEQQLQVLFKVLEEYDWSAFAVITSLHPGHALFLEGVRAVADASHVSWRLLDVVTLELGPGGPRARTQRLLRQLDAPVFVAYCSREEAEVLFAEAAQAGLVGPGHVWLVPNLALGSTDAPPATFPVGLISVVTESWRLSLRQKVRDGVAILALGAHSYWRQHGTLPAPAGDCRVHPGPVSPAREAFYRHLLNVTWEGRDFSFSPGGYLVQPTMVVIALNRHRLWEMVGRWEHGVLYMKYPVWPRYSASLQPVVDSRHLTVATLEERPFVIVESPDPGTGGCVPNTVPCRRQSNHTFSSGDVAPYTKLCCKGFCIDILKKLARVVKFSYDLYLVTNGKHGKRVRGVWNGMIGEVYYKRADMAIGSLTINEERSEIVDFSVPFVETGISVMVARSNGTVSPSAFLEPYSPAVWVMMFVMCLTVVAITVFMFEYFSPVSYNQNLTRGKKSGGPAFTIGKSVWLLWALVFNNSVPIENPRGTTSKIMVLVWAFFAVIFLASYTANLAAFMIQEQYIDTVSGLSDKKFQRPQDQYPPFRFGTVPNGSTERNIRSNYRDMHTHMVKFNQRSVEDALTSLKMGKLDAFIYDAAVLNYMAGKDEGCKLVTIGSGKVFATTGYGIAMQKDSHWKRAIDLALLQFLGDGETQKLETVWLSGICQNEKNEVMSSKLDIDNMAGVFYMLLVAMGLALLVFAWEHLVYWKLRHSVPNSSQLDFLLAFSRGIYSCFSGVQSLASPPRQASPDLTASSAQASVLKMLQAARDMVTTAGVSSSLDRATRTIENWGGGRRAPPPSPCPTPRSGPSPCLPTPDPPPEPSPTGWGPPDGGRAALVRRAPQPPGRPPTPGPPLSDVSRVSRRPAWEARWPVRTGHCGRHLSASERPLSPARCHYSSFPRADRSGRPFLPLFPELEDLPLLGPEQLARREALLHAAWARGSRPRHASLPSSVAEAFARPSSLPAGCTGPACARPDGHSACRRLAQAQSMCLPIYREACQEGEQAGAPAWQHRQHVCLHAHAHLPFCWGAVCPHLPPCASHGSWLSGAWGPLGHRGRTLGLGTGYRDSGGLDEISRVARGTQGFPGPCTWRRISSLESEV
Description: (§1) Assays were conducted as described by Moskal et al., “GLYX-13: a monoclonal antibody-derived peptide that acts as an N-methyl-D-aspartate receptor modulator,” Neuropharmacology, 49, 1077-87, 2005. These studies were designed to determine if the test compounds act to facilitate NMDAR activation in NMDAR2A, NMDAR2B, NMDAR2C or NMDAR2D expressing HEK cell membranes as measured by increases in [^3H]MK-801 binding.
(§2) In the assay, 300 μg of NMDAR expressing HEK cell membrane extract protein was preincubated for 15 minutes at […] in the presence of saturating concentrations of glutamate (50 μM) and varying concentrations of test compound (1×10^−15M-1×10^−7M), or 1 mM glycine. Following the addition of 0.3 μCi of [3H]MK-801 (22.5 Ci/mmol), reactions were again incubated for 15 minutes at 25° C. (nonequilibrium conditions). Bound and free [3H]MK-801 were separated via rapid filtration using a Brandel apparatus.
(§3) In analyzing the data, the DPM (disintegrations per minute) of [3H]MK-801 remaining on the filter were measured for each concentration of test compound or for 1 mM glycine. The DPM values for each concentration of a ligand (N=2) were averaged. The baseline value was determined from the best fit curve of the DPM values modeled using the GraphPad program and the log(agonist) vs. response (three parameters) algorithm was then subtracted from all points in the dataset. The % maximal [^3H]MK-801 binding was then calculated relative to that of 1 mM glycine: all baseline subtracted DPM values were divided by the average value for 1 mM glycine. The EC50 and % maximal activity were then obtained from the best fit curve of the % maximal [3H]MK-801 binding data modelled using the GraphPad program and the log(agonist) vs. response (three parameters) algorithm.
(§4) The tables below summarize the results for the wild type […] NMDAR2A, NMDAR2B, NMDAR2C, and NMDAR2D, and whether the compound is not an agonist (−), is an agonist (+), or is a strong agonist (++), where column A is based on the % maximal [3H]MK-801 binding relative to 1 mM glycine (−=0; <100%=+; and >100%=++); and column B is based on log EC50 values (0=−; ≥1×10^−9 M (e.g., −8)=+; and <1×10^−9 M (e.g., −10)=++).

NMDAR2D = molecular target: T3, NMDAR2D (Homo sapiens, UniProt O15399); experiment: NMDAR agonist assay, [3H]MK-801 binding, NMDAR2D expressing HEK cell membranes; type: biochemical; conditions: 50 μM glutamate; relative to 1 mM glycine
T3 construct: expressed in transfected cells; host or cells: HEK cells (membrane extract)
T3 sequence (O15399 28-1336, species assumed, other chains not shown): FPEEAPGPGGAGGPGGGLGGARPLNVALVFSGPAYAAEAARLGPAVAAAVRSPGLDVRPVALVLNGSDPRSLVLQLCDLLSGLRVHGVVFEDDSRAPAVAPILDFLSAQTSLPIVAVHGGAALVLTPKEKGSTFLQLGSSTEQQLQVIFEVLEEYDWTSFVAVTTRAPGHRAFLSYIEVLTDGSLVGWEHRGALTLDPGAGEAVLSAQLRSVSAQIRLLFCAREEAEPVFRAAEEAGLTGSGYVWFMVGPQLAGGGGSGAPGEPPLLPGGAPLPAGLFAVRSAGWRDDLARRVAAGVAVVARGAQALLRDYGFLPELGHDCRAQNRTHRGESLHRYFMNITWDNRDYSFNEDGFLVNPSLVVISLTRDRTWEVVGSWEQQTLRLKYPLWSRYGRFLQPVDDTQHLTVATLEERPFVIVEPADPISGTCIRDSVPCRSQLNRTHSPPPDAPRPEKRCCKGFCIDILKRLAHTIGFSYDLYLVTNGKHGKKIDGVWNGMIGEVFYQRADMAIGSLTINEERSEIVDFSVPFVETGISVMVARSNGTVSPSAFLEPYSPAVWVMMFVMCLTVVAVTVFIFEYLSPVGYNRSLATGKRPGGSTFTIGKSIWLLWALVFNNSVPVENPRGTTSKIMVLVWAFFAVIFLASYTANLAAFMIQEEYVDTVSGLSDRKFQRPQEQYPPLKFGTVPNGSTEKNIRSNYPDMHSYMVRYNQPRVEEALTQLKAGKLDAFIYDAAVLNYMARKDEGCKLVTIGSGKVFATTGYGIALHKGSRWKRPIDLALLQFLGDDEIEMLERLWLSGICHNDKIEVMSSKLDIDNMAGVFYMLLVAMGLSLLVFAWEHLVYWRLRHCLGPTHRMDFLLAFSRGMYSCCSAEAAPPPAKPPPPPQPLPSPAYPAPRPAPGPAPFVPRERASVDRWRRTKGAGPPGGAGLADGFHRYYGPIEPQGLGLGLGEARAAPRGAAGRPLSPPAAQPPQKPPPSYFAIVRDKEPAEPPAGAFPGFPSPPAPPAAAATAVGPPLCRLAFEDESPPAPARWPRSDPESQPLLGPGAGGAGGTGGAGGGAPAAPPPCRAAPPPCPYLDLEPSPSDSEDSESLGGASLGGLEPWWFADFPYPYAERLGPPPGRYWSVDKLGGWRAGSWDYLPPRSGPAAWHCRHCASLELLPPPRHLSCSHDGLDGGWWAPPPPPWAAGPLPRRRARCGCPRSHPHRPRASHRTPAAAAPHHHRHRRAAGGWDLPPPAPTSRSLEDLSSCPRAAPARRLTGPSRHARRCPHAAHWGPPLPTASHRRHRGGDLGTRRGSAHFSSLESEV
Description: as §1, §2, §3, §4

[1] = IV pharmacokinetics in Sprague Dawley rats; type: in vivo; conditions: Sprague-Dawley, rat, in vivo, iv, 2 mg/kg, normal saline
Description: Sprague Dawley rats were dosed intravenously using a normal saline formulation containing 2 mg/kg of the compounds identified in the below table. The table below summarizes the results of the IV pharmacokinetics.

[2] = Oral pharmacokinetics in Sprague Dawley rats (plasma, brain, CSF); type: in vivo; conditions: rat, 10 mg/kg
Description: In another experiment, Sprague Dawley rats were dosed per os (oral gavage) using a normal saline formulation containing 10 mg/kg of the compounds identified in the table below. Plasma, brain, and CSF samples were analyzed at various time points over a 24 hour period. The table below summarizes the results of the oral pharmacokinetics, where the first three values (Tmax, Cmax and AUClast) are plasma values.

Sprague Dawley rats = experiment: Porsolt forced swim test; type: in vivo
[3] = Microsomal stability (Human); type: in vitro ADME; conditions: after 60 minutes
Description: Microsomal stability of disclosed compounds was investigated. The following table indicates the percent of compound remaining after 60 minutes.

Plasma stability (Human) = type: in vitro ADME; conditions: after 60 minutes
Description: (§5) Plasma stability of disclosed compounds was investigated. The following table indicates the percent of compound remaining after 60 minutes.

Plasma stability (Rat) = type: in vitro ADME; conditions: after 60 minutes
Description: as §5

T1 sequence (Q13224 27-1484, species assumed, other chains not shown): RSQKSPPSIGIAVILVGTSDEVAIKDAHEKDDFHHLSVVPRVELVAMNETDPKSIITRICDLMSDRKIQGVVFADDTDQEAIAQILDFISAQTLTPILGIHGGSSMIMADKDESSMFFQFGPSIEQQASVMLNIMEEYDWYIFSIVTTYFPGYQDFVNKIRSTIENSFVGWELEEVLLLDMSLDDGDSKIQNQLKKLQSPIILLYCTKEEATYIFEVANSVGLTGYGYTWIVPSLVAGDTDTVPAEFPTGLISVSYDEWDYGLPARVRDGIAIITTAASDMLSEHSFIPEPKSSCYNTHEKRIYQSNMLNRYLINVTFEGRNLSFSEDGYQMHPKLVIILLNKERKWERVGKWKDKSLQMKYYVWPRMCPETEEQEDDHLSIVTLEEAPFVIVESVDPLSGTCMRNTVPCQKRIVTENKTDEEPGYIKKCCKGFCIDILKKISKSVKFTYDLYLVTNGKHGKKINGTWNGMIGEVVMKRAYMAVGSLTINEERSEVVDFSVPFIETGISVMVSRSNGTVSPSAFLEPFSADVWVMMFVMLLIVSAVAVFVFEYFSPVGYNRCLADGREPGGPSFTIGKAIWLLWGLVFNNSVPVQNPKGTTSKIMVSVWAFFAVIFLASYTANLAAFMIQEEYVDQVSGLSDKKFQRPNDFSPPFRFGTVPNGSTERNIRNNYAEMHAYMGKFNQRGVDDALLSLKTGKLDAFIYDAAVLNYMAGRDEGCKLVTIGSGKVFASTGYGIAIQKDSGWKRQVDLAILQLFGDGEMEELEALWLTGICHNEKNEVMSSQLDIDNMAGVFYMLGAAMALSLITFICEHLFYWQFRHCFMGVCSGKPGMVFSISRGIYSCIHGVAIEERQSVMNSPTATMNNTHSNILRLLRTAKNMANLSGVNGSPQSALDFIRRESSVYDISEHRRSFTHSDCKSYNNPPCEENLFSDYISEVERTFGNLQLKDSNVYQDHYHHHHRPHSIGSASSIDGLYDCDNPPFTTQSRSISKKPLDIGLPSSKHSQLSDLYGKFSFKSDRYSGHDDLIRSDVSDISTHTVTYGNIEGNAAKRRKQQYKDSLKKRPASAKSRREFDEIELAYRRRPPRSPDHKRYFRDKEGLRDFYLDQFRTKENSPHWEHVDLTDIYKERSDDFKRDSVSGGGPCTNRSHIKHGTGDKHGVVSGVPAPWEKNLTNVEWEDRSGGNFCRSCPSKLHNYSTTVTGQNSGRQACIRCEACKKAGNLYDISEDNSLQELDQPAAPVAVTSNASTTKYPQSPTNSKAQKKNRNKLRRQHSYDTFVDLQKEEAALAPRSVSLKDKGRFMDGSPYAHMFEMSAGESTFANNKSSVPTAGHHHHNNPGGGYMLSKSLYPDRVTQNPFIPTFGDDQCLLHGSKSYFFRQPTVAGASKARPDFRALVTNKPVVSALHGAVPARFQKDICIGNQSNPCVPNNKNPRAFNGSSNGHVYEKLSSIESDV

- EC50 (NMDAR2B; read-out: NMDAR2B B: log EC50 (converted)): ≥ 1 nM
- Emax (NMDAR2B; relative to 1 mM glycine, read-out: NMDAR2B A: % maximal [3H]MK-801 binding relative to 1 mM glycine): < 100%
- NMDAR2C A: % maximal [3H]MK-801 binding relative to 1 mM glycine (NMDAR2C): 0%
- NMDAR2D A: % maximal [3H]MK-801 binding relative to 1 mM glycine (NMDAR2D): + (<100%=+)
- AUC(0-t) [1]: 1250 ng·h/mL
- clearance [1]: 27 mL/min/kg
- half-life [1]: 3.6 h
- Cmax ([1]; read-out: Cmax): 1470 ng/mL
- Vd ([1]; read-out: Vss): 3.92 L/kg
- Tmax ([2]; Sprague-Dawley, po, per os, plasma, read-out: Tmax): 0.5 h
- AUC(0-t) ([2]; Sprague-Dawley, plasma, po, per os): 3860 ng·h/mL
- bioavailability ([2]; Sprague-Dawley, plasma, po, per os 10 mg/kg): 62%
- Cmax ([2]; Sprague-Dawley, plasma, po, per os, plasma, read-out: Cmax): 1960 ng/mL
- CSF Cmax ([2]; per os, CSF): 551.3 ng/mL
- Brain Cmax ([2]; per os, brain): 3963.2 ng/mL
- Microsomal (Human): percent of compound remaining [3]: 94%
- Plasma (Human): percent of compound remaining (Plasma stability (Human)): 95%
- Plasma (Rat): percent of compound remaining (Plasma stability (Rat)): 100%
SMILES: O=C1NCC=CC[C@]12CCCN2 [GA, (R)-1,7-diazaspiro[4.6]undec-9-en-6-one]
- % reduction in float time (Sprague Dawley rats; 1 wk post-dose, 0.00001 mg/kg): 55%
- Significance vs. vehicle (Sprague Dawley rats; 1 wk post-dose, 0.00001 mg/kg): Yes
- % reduction in float time (Sprague Dawley rats; 1 wk post-dose, 0.001 mg/kg): 71%
- Significance vs. vehicle (Sprague Dawley rats; 1 wk post-dose, 0.001 mg/kg): Yes
- % reduction in float time (Sprague Dawley rats; 1 wk post-dose, 0.1 mg/kg): 72%
- Significance vs. vehicle (Sprague Dawley rats; 1 wk post-dose, 0.1 mg/kg): Yes
- % reduction in float time (Sprague Dawley rats; 1 wk post-dose, 10.0 mg/kg): 44%
- Significance vs. vehicle (Sprague Dawley rats; 1 wk post-dose, 10.0 mg/kg): Yes
- % reduction in float time (Sprague Dawley rats; 1 h post-dose, 0.00001 mg/kg): 29%
- Significance vs. vehicle (Sprague Dawley rats; 1 h post-dose, 0.00001 mg/kg): No
- % reduction in float time (Sprague Dawley rats; 1 h post-dose, 0.001 mg/kg): 58%
- Significance vs. vehicle (Sprague Dawley rats; 1 h post-dose, 0.001 mg/kg): Yes
- % reduction in float time (Sprague Dawley rats; 1 h post-dose, 0.1 mg/kg): 67%
- Significance vs. vehicle (Sprague Dawley rats; 1 h post-dose, 0.1 mg/kg): Yes
- % reduction in float time (Sprague Dawley rats; 1 h post-dose, 10.0 mg/kg): 50%
- Significance vs. vehicle (Sprague Dawley rats; 1 h post-dose, 10.0 mg/kg): No
- % reduction in float time (Sprague Dawley rats; 24 h post-dose, 0.1 mg/kg): 64%
- Significance vs. vehicle (Sprague Dawley rats; 24 h post-dose, 0.1 mg/kg): Yes
